Source: US7361686B2, “Compounds for the treatment of metabolic disorders” (Wellstat Therapeutics Corporation, priority 2003, dated 2008)

Tested on: db/db mice
Assay: Antidiabetic effects in db/db mice (serum chemistry after 4 weeks of daily oral dosing)
Type: in vivo
Settings: for blood glucose, effect in words: versus vehicle; for Triglycerides ± SEM (serum) / Glucose ± SEM (serum glucose) / Free Fatty Acids ± SEM (serum): male obese db/db mice, 100 mg/kg daily oral, treatment for 4 weeks, mean ± SEM; for Triglycerides ± SEM (serum): vehicle 621 ± 54, lean 96.4 ± 6.4; for Glucose ± SEM (serum glucose): vehicle 747 ± 19, lean control 193 ± 11; for Free Fatty Acids ± SEM (serum): vehicle 2415 ± 134, lean 1637 ± 105
Source text: Db/db mice have a defect in leptin signaling, leading to hyperphagia, obesity and diabetes. Moreover, unlike ob/ob mice on a C57BL/6J background, db/db mice on a C57BLKS background undergo failure of their insulin-producing pancreatic islet cells, resulting in progression from hyperinsulinemia (associated with peripheral insulin resistance) to hypoinsulinemic diabetes.
Male obese (db/db homozygote) C57B/Ksola mice approximately 8 weeks of age, were obtained from Jackson Labs (Bar Harbor, Me.) and randomly assigned into groups of 5-7 animals such that the body weights (40-45 g) and serum glucose levels (≧300 mg/dl in fed state) were similar between groups; male lean (db/+heterozygote) mice served as cohort controls. A minimum of 7 days was allowed for adaptation after arrival. All animals were maintained under controlled temperature (23° C.), relative humidity (50±5%) and light (7:00-19:00), and allowed free access to standard chow (Formulab Diet 5008, Quality Lab Products, Elkridge, Md.) and water.
Treatment cohorts were given daily oral doses of vehicle, compound CO (100 mg/kg), or Compound CP (100 mg/kg) for 4 weeks. At the end of the treatment period 100 μl of venous blood was withdrawn in a heparinized capillary tube from the retro-orbital sinus for serum chemistry analysis.

[1] = db/db mice, after 4 weeks of daily oral dosing, 100 mg/kg
[2] = db/db mice, after 4 weeks of daily oral dosing, 100 mg/kg, versus vehicle-treated db/db mice

SMILES	blood glucose, effect in words [1]	serum triglycerides, effect in words [2]	Triglycerides ± SEM (serum) [mg/dL]	Glucose ± SEM (serum glucose) [mg/dL]	Free Fatty Acids ± SEM (serum) [µM]	serum free fatty acids, effect in words [2]
CCOC(=O)CC/C=C/c1cccc(OCc2c(C)cccc2C)c1 [Cpd. CO, 5-[3-(2,6-Dimethylbenzyloxy)-phenyl]-pent-4-enoic acid ethyl ester]	significant reduction	reduced	320 ± 30	651 ± 36	2689 ± 70	
CCOC(=O)CCC/C=C/c1cccc(OCc2c(C)cccc2C)c1 [Cpd. CP, 6-[3-(2,6-Dimethylbenzyloxy)-phenyl]-hex-5-enoic acid ethyl ester]	significant reduction	reduced	150 ± 34	404 ± 101	1765 ± 39	reduced
